Results on one molecule are retold here after patent publication US20260165948A1, “A COMPOSITION FOR SKIN REGENERATION COMPRISING A CULTURE MEDIUM OF TONSIL-DERIVED MESENCHYMAL STEM CELLS, THE ANTIOXIDANT EFFECT OF WHICH IS ENHANCED BY N-ACETYLCYSTEINE (NAC)” (priority 2023, published 2026).

Data set [1] concerns tonsil-derived human MSCs (hMSC-T, passage 6). Briefly: Cell viability upon NAC treatment (WST, absorbance at 450 nm) with PYBR challenge. It counts as cell-based. Particulars: NAC pretreatment 10 mM and 20 mM for 24 hours, then PYBR 5, 10, 20 μg/mL for 24 hours; FIG. 3. The procedure: In order to evaluate cell viability upon NAC treatment, tonsil-derived human MSCs (hMSC-T, passage 6) were seeded in a culture medium at a density of 1×10^3 cells/well. On the following day, NAC was treated at concentrations of 10 mM and 20 mM for 24 hours. Thereafter, the cells were washed with PBS and the medium was replaced, followed by treatment with PYBR at concentrations of 5, 10, and 20 μg/mL. After 24 hours, the cells were washed three times with PBS and transferred to fresh medium (100 μL) containing 10 μL of WST solution, and incubated at 37° C. for 2 hours in the dark. Absorbance at 450 nm was then measured to evaluate cell viability (FIG. 2). A group not treated with NAC was used as a positive control.

For data set [2] the test system is unchanged. As to the kind of experiment: Antioxidant activity (ROS assay) with PYBR challenge. Type of data set: cell-based. To be noted: NAC pretreatment 10 mM and 20 mM for 24 hours, then PYBR 5, 10, 20 μg/mL for 24 hours; FIG. 5. The procedure:
In order to evaluate antioxidant activity upon NAC treatment, tonsil-derived human MSCs (hMSC-T, passage 6) were seeded in a culture medium at a density of 1×10^4 cells/well. On the following day, NAC was treated at concentrations of 10 mM and 20 mM for 24 hours. Thereafter, the cells were washed with PBS and the medium was replaced, followed by treatment with PYBR at concentrations of 5, 10, and 20 μg/mL. After 24 hours, the cells were washed three times with PBS and incubated in 100 μL of ROS working solution at 37° C. for 30 minutes in the dark. Absorbance was then measured at 488/525 nm (FIG. 4). A group not treated with NAC was used as a positive control.

In data set [3] the test system is tonsil-derived human MSCs. Briefly: Determination of NAC pretreatment concentration (cell viability). To be noted: NAC 10 mM, pretreatment for 24 hours; FIG. 1. The procedure:
In order to determine the concentration of NAC for pretreatment of tonsil-derived human MSCs, the tonsil-derived human MSCs were pretreated with NAC prepared in Example 1 at concentrations of 2, 4, 6, 8, 10, 15, and 100 mM for 24 hours, and then cell viability was evaluated.

In the case of `CC(=O)NC(CS)C(=O)O` (stereo not drawn) [NAC, 2-acetamido-3-sulfanylpropanoic acid], in data set [1], the “cell viability after PYBR treatment” value was “significantly restored cell viability”. In addition, in data set [2], the “ROS levels after PYBR treatment” value was “significantly reduced ROS levels”. The “cytotoxicity (cell viability)” value in data set [3] is “no cytotoxicity was observed”.
